Experiments:
[1] = target: Serine/threonine-protein kinase PLK3 (Homo sapiens) (UniProt Q9H4B4); details: Compound concentration 1000.0 nM
[2] = target: Muscarinic acetylcholine receptor M2 (Homo sapiens, UniProt P08172); experiment: GPCRScan assay: inhibition of M2; parameters: radioligand conc. used [nm] 0.2 – 1.0, parental cells stable CHO
[3] = target: 5-hydroxytryptamine receptor 1D (Homo sapiens, UniProt P28221); details: Compound concentration 10.0 uM
[4] = target: Serine/threonine-protein kinase D2 (Homo sapiens) (UniProt Q9BZL6); details: Compound concentration 1000.0 nM
[5] = target: GABA-A receptor; anion channel (Rattus norvegicus) (UniProt O09028+P15431+P18506+P18508+P19969+P20236+P23574+P23576+P28471+P28473+P30191+P62813+P63079+P63138+Q91ZM7+Q9ES14); details: Compound concentration 10.0 uM
[6] = target: Serine/threonine-protein kinase WNK4 (Homo sapiens) (UniProt Q96J92); details: Compound concentration 1000.0 nM
[7] = target: Dual specificity protein kinase CLK1 (Homo sapiens) (UniProt P49759); details: Compound concentration 1000.0 nM
Histamine H1 receptor = Histamine H1 receptor (Homo sapiens, UniProt P35367); details: Compound concentration 10.0 uM
[8] = target: Epidermal growth factor receptor (Homo sapiens, UniProt P00533); experiment: EGFR kinase inhibition assay
[9] = target: Receptor-interacting serine/threonine-protein kinase 4 (Homo sapiens) (UniProt P57078); details: Compound concentration 1000.0 nM
D(1A) dopamine receptor = D(1A) dopamine receptor (Homo sapiens, UniProt P21728); details: Compound concentration 10.0 uM
[10] = target: Cyclin-dependent kinase 2 (Homo sapiens) (UniProt P24941); details: Compound concentration 1000.0 nM
[11] = tested on: Receptor-type tyrosine-protein kinase FLT3 (Homo sapiens), P36888 [D835Y]; details: Compound concentration 1000.0 nM
[12] = tested on: Mast/stem cell growth factor receptor Kit (Homo sapiens), P10721 [D816V]; details: Compound concentration 1000.0 nM
[13] = target: Calcium/calmodulin-dependent protein kinase type II subunit gamma (Homo sapiens) (UniProt Q13555); details: Compound concentration 1000.0 nM
[14] = target: Alpha-2A adrenergic receptor (Homo sapiens, UniProt P08913); experiment: GPCRScan assay: inhibition of Alpha2A; parameters: radioligand conc. used [nm] 1.0 – 3.0, parental cells stable MDCK
Sequence of Alpha-2A adrenergic receptor (P08913 whole entry): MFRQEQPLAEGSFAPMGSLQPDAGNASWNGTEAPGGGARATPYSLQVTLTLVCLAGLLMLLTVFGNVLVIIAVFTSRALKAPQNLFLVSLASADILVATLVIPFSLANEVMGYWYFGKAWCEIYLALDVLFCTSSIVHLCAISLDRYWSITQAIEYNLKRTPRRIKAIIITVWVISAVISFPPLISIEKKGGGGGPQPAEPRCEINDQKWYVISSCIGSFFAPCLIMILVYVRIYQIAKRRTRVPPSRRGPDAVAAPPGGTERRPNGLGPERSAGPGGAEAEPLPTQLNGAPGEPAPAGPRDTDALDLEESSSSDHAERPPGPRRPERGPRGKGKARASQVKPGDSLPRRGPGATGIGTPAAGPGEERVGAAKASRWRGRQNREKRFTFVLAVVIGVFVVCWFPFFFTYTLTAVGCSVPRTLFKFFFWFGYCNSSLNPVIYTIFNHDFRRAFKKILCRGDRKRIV

[15] = target: Receptor-type tyrosine-protein kinase FLT3 (Homo sapiens) (UniProt P36888); details: Compound concentration 1000.0 nM
[16] = target: BMP-2-inducible protein kinase (Homo sapiens) (UniProt Q9NSY1); details: Compound concentration 1000.0 nM
[17] = target: Ribosomal protein S6 kinase alpha-1 (Homo sapiens) (UniProt Q15418); details: Compound concentration 1000.0 nM
[18] = target: Mitogen-activated protein kinase 6 (Homo sapiens) (UniProt Q16659); details: Compound concentration 1000.0 nM
[19] = target: Dual specificity protein kinase CLK4 (Homo sapiens) (UniProt Q9HAZ1); details: Compound concentration 1000.0 nM
[20] = target: Tyrosine-protein kinase ITK/TSK (Homo sapiens) (UniProt Q08881); details: Compound concentration 1000.0 nM
[21] = target: Beta-3 adrenergic receptor (Homo sapiens) (UniProt P13945); details: Compound concentration 10.0 uM
Sequence of Beta-3 adrenergic receptor (Homo sapiens) (P13945 whole entry, looked up): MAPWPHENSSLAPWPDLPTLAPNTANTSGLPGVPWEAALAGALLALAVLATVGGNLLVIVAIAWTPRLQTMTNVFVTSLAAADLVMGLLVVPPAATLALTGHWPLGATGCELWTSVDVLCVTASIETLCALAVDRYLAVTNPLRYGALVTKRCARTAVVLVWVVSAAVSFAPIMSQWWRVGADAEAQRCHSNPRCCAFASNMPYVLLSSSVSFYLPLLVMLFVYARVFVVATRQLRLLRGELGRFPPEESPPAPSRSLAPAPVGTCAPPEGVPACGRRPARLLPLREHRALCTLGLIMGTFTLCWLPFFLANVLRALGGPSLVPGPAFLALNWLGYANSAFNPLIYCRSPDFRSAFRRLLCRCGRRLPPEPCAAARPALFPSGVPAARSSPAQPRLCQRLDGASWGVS

[22] = target: Cyclin-dependent kinase 17 (Homo sapiens) (UniProt Q00537); details: Compound concentration 1000.0 nM
[23] = target: Serine/threonine-protein kinase Nek4 (Homo sapiens) (UniProt P51957); details: Compound concentration 1000.0 nM
[24] = target: Sigma non-opioid intracellular receptor 1 (Homo sapiens) (UniProt Q99720); details: Compound concentration 10.0 uM
[25] = target: Mitogen-activated protein kinase kinase kinase 12 (Homo sapiens) (UniProt Q12852); details: Compound concentration 1000.0 nM
[26] = target: RAC-gamma serine/threonine-protein kinase (Homo sapiens) (UniProt Q9Y243); details: Compound concentration 1000.0 nM
[27] = target: MAP/microtubule affinity-regulating kinase 3 (Homo sapiens) (UniProt P27448); details: Compound concentration 1000.0 nM
[28] = target: Serine/threonine-protein kinase BRSK1 (Homo sapiens) (UniProt Q8TDC3); details: Compound concentration 1000.0 nM
[29] = target: Phosphatidylinositol 4,5-bisphosphate 3-kinase catalytic subunit beta isoform (Homo sapiens) (UniProt P42338); details: Compound concentration 1000.0 nM
Sequence of Phosphatidylinositol 4,5-bisphosphate 3-kinase catalytic subunit beta isoform (Homo sapiens) (P42338 whole entry, looked up, canonical isoform): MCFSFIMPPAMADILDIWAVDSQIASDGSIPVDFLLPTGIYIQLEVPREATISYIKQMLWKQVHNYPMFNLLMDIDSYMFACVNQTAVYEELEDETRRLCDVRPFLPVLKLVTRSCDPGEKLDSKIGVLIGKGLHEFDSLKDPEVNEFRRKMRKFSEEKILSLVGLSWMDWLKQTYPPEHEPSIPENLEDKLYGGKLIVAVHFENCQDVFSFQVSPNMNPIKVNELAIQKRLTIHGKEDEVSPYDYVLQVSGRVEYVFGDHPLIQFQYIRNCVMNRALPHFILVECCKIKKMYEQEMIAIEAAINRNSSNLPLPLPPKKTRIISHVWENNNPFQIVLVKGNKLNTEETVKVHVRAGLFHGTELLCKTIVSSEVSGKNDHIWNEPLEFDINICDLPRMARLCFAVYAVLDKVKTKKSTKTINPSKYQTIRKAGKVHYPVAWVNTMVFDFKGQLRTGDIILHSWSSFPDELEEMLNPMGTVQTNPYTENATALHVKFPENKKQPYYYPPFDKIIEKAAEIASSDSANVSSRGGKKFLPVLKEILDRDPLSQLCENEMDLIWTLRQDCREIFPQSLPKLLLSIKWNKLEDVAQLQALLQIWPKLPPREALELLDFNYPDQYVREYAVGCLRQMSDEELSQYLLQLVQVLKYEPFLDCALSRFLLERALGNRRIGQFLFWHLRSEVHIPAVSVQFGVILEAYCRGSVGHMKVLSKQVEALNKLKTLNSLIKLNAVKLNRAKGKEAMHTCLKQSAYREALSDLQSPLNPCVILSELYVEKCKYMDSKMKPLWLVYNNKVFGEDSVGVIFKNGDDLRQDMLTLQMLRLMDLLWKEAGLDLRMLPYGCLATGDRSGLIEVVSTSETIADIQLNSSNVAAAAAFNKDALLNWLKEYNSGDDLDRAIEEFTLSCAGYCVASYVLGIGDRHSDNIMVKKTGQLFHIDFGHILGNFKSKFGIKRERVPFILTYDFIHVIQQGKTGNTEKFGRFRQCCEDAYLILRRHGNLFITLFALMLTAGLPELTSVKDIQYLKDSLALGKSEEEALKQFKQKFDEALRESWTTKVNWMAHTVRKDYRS

[30] = target: Proto-oncogene tyrosine-protein kinase ROS (Homo sapiens) (UniProt P08922); details: Compound concentration 1000.0 nM
[31] = target: Casein kinase I isoform gamma-1 (Homo sapiens) (UniProt Q9HCP0); details: Compound concentration 1000.0 nM
[32] = target: Mitogen-activated protein kinase kinase kinase 13 (Homo sapiens) (UniProt O43283); details: Compound concentration 1000.0 nM
[33] = target: Mitogen-activated protein kinase kinase kinase 10 (Homo sapiens) (UniProt Q02779); details: Compound concentration 1000.0 nM
[34] = target: Serine/threonine-protein kinase MRCK alpha (Homo sapiens) (UniProt Q5VT25); details: Compound concentration 1000.0 nM
Sequence of Serine/threonine-protein kinase MRCK alpha (Homo sapiens) (Q5VT25 whole entry): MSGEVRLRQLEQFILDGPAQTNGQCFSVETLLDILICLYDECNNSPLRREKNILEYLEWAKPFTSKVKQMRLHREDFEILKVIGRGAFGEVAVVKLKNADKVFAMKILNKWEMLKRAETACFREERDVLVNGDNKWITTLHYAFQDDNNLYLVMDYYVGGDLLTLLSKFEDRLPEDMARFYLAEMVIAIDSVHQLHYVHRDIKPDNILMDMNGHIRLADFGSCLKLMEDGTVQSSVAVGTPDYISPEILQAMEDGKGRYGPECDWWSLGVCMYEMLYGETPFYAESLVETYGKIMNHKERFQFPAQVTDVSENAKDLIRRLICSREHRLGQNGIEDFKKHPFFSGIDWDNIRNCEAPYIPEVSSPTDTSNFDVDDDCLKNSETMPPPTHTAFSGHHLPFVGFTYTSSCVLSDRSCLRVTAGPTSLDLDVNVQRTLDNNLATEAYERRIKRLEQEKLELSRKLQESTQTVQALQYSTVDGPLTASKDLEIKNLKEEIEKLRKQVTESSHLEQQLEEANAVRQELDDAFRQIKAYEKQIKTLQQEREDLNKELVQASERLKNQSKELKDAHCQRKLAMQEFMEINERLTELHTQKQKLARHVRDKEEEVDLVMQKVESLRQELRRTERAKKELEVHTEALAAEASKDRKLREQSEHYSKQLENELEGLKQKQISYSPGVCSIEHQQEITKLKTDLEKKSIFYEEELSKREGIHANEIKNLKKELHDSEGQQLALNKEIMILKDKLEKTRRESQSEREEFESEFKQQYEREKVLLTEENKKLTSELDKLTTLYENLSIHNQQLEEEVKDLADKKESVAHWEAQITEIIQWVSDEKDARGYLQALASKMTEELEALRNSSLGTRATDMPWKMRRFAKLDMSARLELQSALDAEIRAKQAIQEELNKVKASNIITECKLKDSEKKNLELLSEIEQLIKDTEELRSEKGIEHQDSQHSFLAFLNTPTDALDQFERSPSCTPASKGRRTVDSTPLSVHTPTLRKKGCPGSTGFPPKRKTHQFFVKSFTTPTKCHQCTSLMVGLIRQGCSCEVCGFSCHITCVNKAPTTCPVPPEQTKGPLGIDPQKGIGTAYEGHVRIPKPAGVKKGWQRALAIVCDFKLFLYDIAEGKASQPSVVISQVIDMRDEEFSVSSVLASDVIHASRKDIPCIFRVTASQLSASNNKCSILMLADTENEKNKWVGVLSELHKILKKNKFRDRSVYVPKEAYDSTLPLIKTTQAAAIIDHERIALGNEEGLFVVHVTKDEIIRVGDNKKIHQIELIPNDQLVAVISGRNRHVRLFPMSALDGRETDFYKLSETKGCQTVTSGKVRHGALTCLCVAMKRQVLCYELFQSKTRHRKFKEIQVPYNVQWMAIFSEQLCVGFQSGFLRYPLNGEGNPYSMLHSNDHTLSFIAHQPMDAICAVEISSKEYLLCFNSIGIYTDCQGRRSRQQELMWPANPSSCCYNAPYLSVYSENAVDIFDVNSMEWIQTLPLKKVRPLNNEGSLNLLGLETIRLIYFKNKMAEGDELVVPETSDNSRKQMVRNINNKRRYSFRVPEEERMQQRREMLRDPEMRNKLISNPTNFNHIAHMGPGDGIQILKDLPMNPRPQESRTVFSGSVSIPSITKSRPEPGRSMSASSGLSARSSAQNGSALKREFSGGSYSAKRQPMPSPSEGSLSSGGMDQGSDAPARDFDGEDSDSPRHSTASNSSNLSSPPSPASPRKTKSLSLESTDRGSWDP

[35] = target: Homeodomain-interacting protein kinase 2 (Homo sapiens) (UniProt Q9H2X6); details: Compound concentration 1000.0 nM
[36] = target: Mast/stem cell growth factor receptor Kit (Homo sapiens) (UniProt P10721); details: Compound concentration 1000.0 nM
[37] = target: 5-hydroxytryptamine receptor 7 (Homo sapiens, UniProt P34969); experiment: GPCRScan assay: inhibition of 5-HT7A; parameters: radioligand conc. used [nm] 5.0 – 6.0, parental cells Stable HEK
Sequence of 5-hydroxytryptamine receptor 7 (P34969 whole entry): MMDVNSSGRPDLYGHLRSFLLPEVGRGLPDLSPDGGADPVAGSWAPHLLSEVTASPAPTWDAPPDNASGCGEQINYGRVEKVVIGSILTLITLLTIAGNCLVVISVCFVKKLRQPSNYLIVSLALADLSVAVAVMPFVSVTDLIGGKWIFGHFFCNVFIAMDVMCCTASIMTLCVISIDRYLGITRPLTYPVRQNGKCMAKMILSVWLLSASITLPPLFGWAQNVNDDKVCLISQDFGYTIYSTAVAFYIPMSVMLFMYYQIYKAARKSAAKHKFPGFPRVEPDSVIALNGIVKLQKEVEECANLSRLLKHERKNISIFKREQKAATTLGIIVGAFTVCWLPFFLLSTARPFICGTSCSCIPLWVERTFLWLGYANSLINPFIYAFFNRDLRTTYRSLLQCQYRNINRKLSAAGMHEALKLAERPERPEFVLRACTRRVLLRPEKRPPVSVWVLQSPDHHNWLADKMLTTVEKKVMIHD

Histamine H2 receptor = Histamine H2 receptor (Homo sapiens, UniProt P25021); details: Compound concentration 10.0 uM
[38] = target: Mitogen-activated protein kinase 8 (Homo sapiens) (UniProt P45983); details: Compound concentration 1000.0 nM
[39] = target: Cyclin-dependent kinase 3 (Homo sapiens) (UniProt Q00526); details: Compound concentration 1000.0 nM
Sequence of Cyclin-dependent kinase 3 (Homo sapiens) (Q00526 whole entry, looked up): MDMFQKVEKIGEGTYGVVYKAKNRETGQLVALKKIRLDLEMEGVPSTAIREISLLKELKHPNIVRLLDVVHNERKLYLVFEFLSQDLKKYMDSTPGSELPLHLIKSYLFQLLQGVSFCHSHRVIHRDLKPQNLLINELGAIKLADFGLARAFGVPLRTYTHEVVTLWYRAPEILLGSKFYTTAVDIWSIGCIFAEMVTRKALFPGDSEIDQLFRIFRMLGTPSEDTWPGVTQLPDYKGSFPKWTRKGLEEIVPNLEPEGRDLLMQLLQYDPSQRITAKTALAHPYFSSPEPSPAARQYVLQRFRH

[40] = target: TRAF2 and NCK-interacting protein kinase (Homo sapiens) (UniProt Q9UKE5); details: Compound concentration 1000.0 nM
[41] = target: Serine/threonine-protein kinase TBK1 (Homo sapiens) (UniProt Q9UHD2); details: Compound concentration 1000.0 nM

Sequence of Muscarinic acetylcholine receptor M2 (P08172 whole entry): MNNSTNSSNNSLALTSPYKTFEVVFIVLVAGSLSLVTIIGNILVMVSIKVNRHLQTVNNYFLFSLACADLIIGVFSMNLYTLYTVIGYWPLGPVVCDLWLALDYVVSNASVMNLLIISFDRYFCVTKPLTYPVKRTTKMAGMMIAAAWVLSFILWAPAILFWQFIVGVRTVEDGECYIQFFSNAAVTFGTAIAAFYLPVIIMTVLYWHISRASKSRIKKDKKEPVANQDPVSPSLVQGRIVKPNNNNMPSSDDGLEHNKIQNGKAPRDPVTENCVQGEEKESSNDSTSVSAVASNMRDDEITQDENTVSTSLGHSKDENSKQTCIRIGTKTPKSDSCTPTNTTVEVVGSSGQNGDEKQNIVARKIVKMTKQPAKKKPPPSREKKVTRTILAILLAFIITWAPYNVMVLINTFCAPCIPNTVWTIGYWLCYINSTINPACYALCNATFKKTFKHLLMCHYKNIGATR

## CNCc1ccccc1-c1csc([C@H](C)Nc2nc(C)nc3cc(OC)c(OC)cc23)c1 [BAY-294]
[1]
  residual activity: 87%
[2]
  Ki: 1470 nM
[3]
  inhibition: 98.9%
[4]
  residual activity: 99%
[5]
  inhibition: -1.27%
[6]
  residual activity: 90%
[7]
  residual activity: 95%
Histamine H1 receptor
  inhibition: 56.7%
[8]
  IC50: > 20000 nM (not active)
[9]
  residual activity: 75%
D(1A) dopamine receptor
  inhibition: 89.2%
[10]
  residual activity: 91%
[11]
  residual activity: 100%
[12]
  residual activity: 100%
[13]
  residual activity: 90%
[14]
  Ki: 127 nM
[15]
  residual activity: 100%
[16]
  residual activity: 79%
[17]
  residual activity: 93%
[18]
  residual activity: 100%
[19]
  residual activity: 100%
[20]
  residual activity: 100%
[21]
  inhibition: 38.2%
[22]
  residual activity: 100%
[23]
  residual activity: 83%
[24]
  inhibition: 49%
[25]
  residual activity: 97%
[26]
  residual activity: 95%
[27]
  residual activity: 100%
[28]
  residual activity: 89%
[29]
  residual activity: 89%
[30]
  residual activity: 100%
[31]
  residual activity: 92%
[32]
  residual activity: 91%
[33]
  residual activity: 100%
[34]
  residual activity: 92%
[35]
  residual activity: 76%
[36]
  residual activity: 100%
[37]; read-out: Ki
  Ki: 700 nM
Histamine H2 receptor
  inhibition: 101%
[38]
  residual activity: 81%
[39]
  residual activity: 100%
[40]
  residual activity: 99%
[41]
  residual activity: 100%

## CNCc1ccccc1-c1csc([C@@H](C)Nc2nc(C)nc3cc(OC)c(OC)cc23)c1 [BAY-293]
[1]
  residual activity: 91%
[2]
  Ki: 512 nM
[3]
  inhibition: 98.1%
[4]
  residual activity: 100%
[5]
  inhibition: 0.89%
[6]
  residual activity: 100%
[7]
  residual activity: 98%
Histamine H1 receptor
  inhibition: 49.4%
[8]
  IC50: > 20000 nM (not active)
[9]
  residual activity: 91%
D(1A) dopamine receptor
  inhibition: 82.7%
[10]
  residual activity: 82%
[11]
  residual activity: 84%
[12]
  residual activity: 81%
[13]
  residual activity: 100%
[14]
  Ki: 381 nM
[15]
  residual activity: 97%
[16]
  residual activity: 87%
[17]
  residual activity: 76%
[18]
  residual activity: 100%
[19]
  residual activity: 100%
[20]
  residual activity: 100%
[21]
  inhibition: 20%
[22]
  residual activity: 94%
[23]
  residual activity: 83%
[24]
  inhibition: 22.6%
[25]
  residual activity: 100%
[26]
  residual activity: 92%
[27]
  residual activity: 89%
[28]
  residual activity: 87%
[29]
  residual activity: 96%
[30]
  residual activity: 84%
[31]
  residual activity: 88%
[32]
  residual activity: 80%
[33]
  residual activity: 96%
[34]
  residual activity: 67%
[35]
  residual activity: 86%
[36]
  residual activity: 100%
[37]; read-out: Ki
  Ki: 1730 nM
[37]; read-out: pKi (converted)
  Ki: 1700 nM
Histamine H2 receptor
  inhibition: 100%
[38]
  residual activity: 66%
[39]
  residual activity: 100%
[40]
  residual activity: 85%
[41]
  residual activity: 100%
